Results as given in patent US7919625B2, “4-anilino-3-quinolinecarbonitriles for the treatment of chronic myelogenous leukemia (CML)” (Wyeth LLC, priority 2003, dated 2011).

What was measured:
[1] = tested on: KU812 cells; assay: Inhibition of CML cell proliferation, KU812; type: cell-based; details: Homo sapiens
Experimental: (§1) • A. Inhibition of v-Abl-dependent proliferation. Rat 2 cells infected with Abl-murine leukemia virus were grown and treated as described for the Src cell assay. All measurements were identical except for the cell type that Cell-Titer Glo (Promega) was used to monitor relative cell number. In this case, the reagent was used as recommended by the manufacturer and luminescence was measured on a Wallac Victor plate reader. • B. Inhibition of CML cell proliferation. KU812 and K562 cells were grown in RPMI1640 medium supplemented with 10% fetal calf serum and glutamine with 50 μg/ml gentamicin. Cells were plated at 1000-2000 cells per well on Day 0. On Day 1, compound was added such that the final DMSO concentration was no greater than 0.1%. On Day 4, Cell-Titer Glo was added according to manufacturer specifications and luminescence was determined on a Wallac Victor plate reader.

[2] = tested on: K562 xenografts; assay: K562 xenografts in nude mice, tumor-free survival; type: in vivo
From the text: Nude mice with K562 xenografts were examined on days 11, 22, 36, and 43. Data is presented as a ratio of animals lacking detectable tumors relative to the number of animals per group. K562 tumors imbedded in Matrigel were staged in nude mice until tumors reached 200-300 mm^3.

[3] = tested on: Rat 2 cells infected with Abl-murine leukemia virus; assay: Inhibition of v-Abl-dependent proliferation; type: cell-based; details: Rat2
Experimental: Ultra-low cluster plates (Corning Costar, Acton, Mass.) are seeded with 10,000 cells per well on day 1. Alternatively, Ultra-low cluster plates (Costar 3474) treated with Sigmacote (Sigma, St. Louis, Mo.), rinsed with 70% ethanol, after drying in the hood, are seeded with 5000 cells.
Alternatively relative cell numbers were determined by the CellTiter-Glo™ (Promega) method. All procedures were identical except that cell number was reduced to 1000 cells/well and CellTiter-Glo reagent was added instead of MTS reagent, with luminescence as the readout.
as §1

[4] = tested on: K562 cells; assay: Inhibition of CML cell proliferation, K562; type: cell-based; details: Homo sapiens
Experimental: as §1

[5] = biological target: T1, Src (Homo sapiens, UniProt P12931); assay: Src kinase assay, ELISA format
T1 sequence (P12931 whole entry): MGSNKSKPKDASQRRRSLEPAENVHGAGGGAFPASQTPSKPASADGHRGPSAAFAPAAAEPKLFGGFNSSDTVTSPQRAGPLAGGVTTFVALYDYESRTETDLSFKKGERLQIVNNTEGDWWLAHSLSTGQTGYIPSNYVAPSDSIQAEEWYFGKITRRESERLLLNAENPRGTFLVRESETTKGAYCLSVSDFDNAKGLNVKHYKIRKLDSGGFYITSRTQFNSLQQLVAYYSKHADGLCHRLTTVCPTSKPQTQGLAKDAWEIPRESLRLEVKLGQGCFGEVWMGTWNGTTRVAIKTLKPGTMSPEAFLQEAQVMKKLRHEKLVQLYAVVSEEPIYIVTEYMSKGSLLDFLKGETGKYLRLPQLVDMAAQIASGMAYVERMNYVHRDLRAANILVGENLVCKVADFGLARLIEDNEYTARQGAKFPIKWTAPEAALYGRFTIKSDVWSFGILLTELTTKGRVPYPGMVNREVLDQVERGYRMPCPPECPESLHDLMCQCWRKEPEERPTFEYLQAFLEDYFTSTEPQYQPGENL

[6] = biological target: T2, c-Abl (Homo sapiens, UniProt P00519); assay: Homogeneous solution-based Abl kinase assay (Lance); type: biochemical; details: read-out: c-Abl Enzyme IC50
T2 construct: purchased Panvera P3049
T2 sequence (P00519 whole entry): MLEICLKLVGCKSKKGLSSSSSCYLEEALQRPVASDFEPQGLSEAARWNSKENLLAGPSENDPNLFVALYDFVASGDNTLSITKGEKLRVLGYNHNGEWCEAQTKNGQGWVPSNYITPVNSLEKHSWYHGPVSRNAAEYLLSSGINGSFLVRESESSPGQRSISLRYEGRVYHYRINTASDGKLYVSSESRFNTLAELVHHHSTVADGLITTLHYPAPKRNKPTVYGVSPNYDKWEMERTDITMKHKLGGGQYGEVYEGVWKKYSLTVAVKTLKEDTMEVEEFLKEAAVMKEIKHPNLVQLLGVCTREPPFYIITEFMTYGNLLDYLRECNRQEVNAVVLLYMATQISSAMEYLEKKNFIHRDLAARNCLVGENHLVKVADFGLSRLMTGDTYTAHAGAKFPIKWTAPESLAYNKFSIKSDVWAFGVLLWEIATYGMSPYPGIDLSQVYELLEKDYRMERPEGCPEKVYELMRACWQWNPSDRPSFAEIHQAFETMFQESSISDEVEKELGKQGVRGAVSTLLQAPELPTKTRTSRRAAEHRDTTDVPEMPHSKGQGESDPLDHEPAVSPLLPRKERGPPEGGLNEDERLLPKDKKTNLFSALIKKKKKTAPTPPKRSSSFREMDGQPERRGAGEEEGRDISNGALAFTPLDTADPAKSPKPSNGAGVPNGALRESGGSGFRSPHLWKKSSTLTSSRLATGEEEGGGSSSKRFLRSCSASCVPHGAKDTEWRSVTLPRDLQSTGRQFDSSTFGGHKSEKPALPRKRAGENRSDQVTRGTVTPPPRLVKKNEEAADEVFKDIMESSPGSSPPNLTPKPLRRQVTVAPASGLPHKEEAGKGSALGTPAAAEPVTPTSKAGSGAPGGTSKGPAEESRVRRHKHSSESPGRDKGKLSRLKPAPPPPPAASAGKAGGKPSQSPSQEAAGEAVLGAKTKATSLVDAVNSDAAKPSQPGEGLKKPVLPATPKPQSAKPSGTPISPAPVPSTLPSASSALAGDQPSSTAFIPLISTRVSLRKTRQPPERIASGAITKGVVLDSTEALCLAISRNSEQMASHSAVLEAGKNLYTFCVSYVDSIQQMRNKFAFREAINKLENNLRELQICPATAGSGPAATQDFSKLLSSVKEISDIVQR

[7] = biological target: T1, Src; assay: Src kinase assay, homogeneous solution-based (Lance format); type: biochemical; parameters: purchased Upstate Biotechnologies, Lake Placid, N.Y; details: read-out: Src enzyme IC50
[8] = read-out: Src enzyme IC50, ELISA format

In the case of COc1cc(Nc2c(C#N)cnc3cc(OCCCN4CCN(C)CC4)c(OC)cc23)c(Cl)cc1Cl [Example 1, 4-[(2,4-Dichloro-5-methoxyphenyl)amino]-6-methoxy-7-[3-(4-methyl-1-piperazinyl)propoxy]-3-quinolinecarbonitrile], the IC50 [1] is reported as 0.005 µM, the “Tumor-free survival (animals lacking detectable tumors / animals per group)” value ([2]; 50 mg/kg p.o. once a day for 5 days, day 11) is reported as 6/8 and the “Tumor-free survival (animals lacking detectable tumors / animals per group)” value ([2]; 50 mg/kg p.o. once a day for 5 days, day 22) is reported as 5/8. For the same molecule, the “Tumor-free survival (animals lacking detectable tumors / animals per group)” value ([2]; 50 mg/kg p.o. once a day for 5 days, day 36) was 4/8, the “Tumor-free survival (animals lacking detectable tumors / animals per group)” value ([2]; 50 mg/kg p.o. once a day for 5 days, day 43) was 4/8 and the “Tumor-free survival (animals lacking detectable tumors / animals per group)” value ([2]; 75 mg/kg p.o. once a day for 5 days, day 11) was 7/8. The “Tumor-free survival (animals lacking detectable tumors / animals per group)” value ([2]; 75 mg/kg p.o. once a day for 5 days, day 22) was 6/8, the “Tumor-free survival (animals lacking detectable tumors / animals per group)” value ([2]; 75 mg/kg p.o. once a day for 5 days, day 36) was 6/8 and the “Tumor-free survival (animals lacking detectable tumors / animals per group)” value ([2]; 75 mg/kg p.o. once a day for 5 days, day 43) was 6/8. For the same molecule, the “Tumor-free survival (animals lacking detectable tumors / animals per group)” value ([2]; 100 mg/kg p.o. once a day for 5 days, day 11) was 8/8, the “Tumor-free survival (animals lacking detectable tumors / animals per group)” value ([2]; 100 mg/kg p.o. once a day for 5 days, day 22) was 7/8 and the “Tumor-free survival (animals lacking detectable tumors / animals per group)” value ([2]; 100 mg/kg p.o. once a day for 5 days, day 36) was 7/8. For the same molecule, the “Tumor-free survival (animals lacking detectable tumors / animals per group)” value ([2]; 100 mg/kg p.o. once a day for 5 days, day 43) was 7/8, the “Tumor-free survival (animals lacking detectable tumors / animals per group)” value ([2]; 150 mg/kg p.o. once a day for 5 days, day 11) was 8/8 and the “Tumor-free survival (animals lacking detectable tumors / animals per group)” value ([2]; 150 mg/kg p.o. once a day for 5 days, day 22) was 8/8. For the same molecule, the “Tumor-free survival (animals lacking detectable tumors / animals per group)” value ([2]; 150 mg/kg p.o. once a day for 5 days, day 36) was 8/8, the “Tumor-free survival (animals lacking detectable tumors / animals per group)” value ([2]; 150 mg/kg p.o. once a day for 5 days, day 43) was 8/8 and the IC50 [3] was 0.076 µM. It also gave an IC50 [4] of 0.02 µM.

Work on CCN1CCN(CCCOc2cc3ncc(C#N)c(Nc4cc(OC)c(Cl)cc4Cl)c3cc2OC)CC1 [Example 2, 4-[(2,4-Dichloro-5-methoxyphenyl)amino]-7-[3-(4-ethyl-1-piperazinyl)propoxy]-6-methoxy-3-quinolinecarbonitrile] yielded an IC50 [5, 8] of 0.00077 µM.

For COc1cc(Nc2c(C#N)cnc3cc(OCCN4CCN(C)CC4)c(OC)cc23)c(Cl)cc1Cl [Example 3, 4-[(2,4-Dichloro-5-methoxyphenyl)amino]-6-methoxy-7-[2-(4-methyl-1-piperazinyl)ethoxy]-3-quinolinecarbonitrile], the melting point was 165 to 167 °C, the IC50 [3] was 0.44 µM and the IC50 [4] was 0.048 µM.

CCN1CCN(CCOc2cc3ncc(C#N)c(Nc4cc(OC)c(Cl)cc4Cl)c3cc2OC)CC1 [Example 4, 4-[(2,4-Dichloro-5-methoxyphenyl)amino]-7-[2-(4-ethyl-1-piperazinyl)ethoxy]-6-methoxy-3-quinolinecarbonitrile] showed a melting point of 101 to 105 °C.

In the case of COc1cc(Nc2c(C#N)cnc3cc(OCC4CCN(C)CC4)c(OC)cc23)c(Cl)cc1Cl [Example 5, 4-[(2,4-Dichloro-5-methoxyphenyl)amino]-6-methoxy-7-[(1-methylpiperidin-4-yl)methoxy]-3-quinolinecarbonitrile], the IC50 [1] is reported as 0.0134 µM, the IC50 [3] is reported as 0.617 µM and the IC50 [6] is reported as 0.0029 µM. For the same molecule, the IC50 [4] was 0.039 µM.

For COc1cc(Nc2c(C#N)cnc3cc(OCCC4CCN(C)CC4)c(OC)cc23)c(Cl)cc1Cl [Example 6, 4-[(2,4-Dichloro-5-methoxyphenyl)amino]-6-methoxy-7-[2-(1-methylpiperidin-4-yl)ethoxy]-3-quinolinecarbonitrile], the IC50 [1] was 0.014 µM, the IC50 [3] was 0.458 µM and the IC50 [6] was 0.0029 µM. For the same molecule, the IC50 [4] was 0.041 µM.

For COc1cc(Nc2c(C#N)cnc3cc(OCCCC4CCN(C)CC4)c(OC)cc23)c(Cl)cc1Cl [Example 7, 4-[(2,4-Dichloro-5-methoxyphenyl)amino]-6-methoxy-7-[3-(1-methylpiperidin-4-yl)propoxy]quinoline-3-carbonitrile], the IC50 [1] was 0.0058 µM, the IC50 [3] was 0.185 µM and the IC50 [4] was 0.018 µM.

CCN1CCC(COc2cc3ncc(C#N)c(Nc4cc(OC)c(Cl)cc4Cl)c3cc2OC)CC1 [Example 8, 4-[(2,4-Dichloro-5-methoxyphenyl)amino]-7-[(1-ethylpiperidin-4-yl)methoxy]-6-methoxyquinoline-3-carbonitrile] showed a melting point of 192 to 195 °C.

Molecule CCOc1cc2c(Nc3cc(OC)c(Cl)cc3Cl)c(C#N)cnc2cc1OCCCN1CCN(C)CC1 [Example 9, 4-[(2,4-Dichloro-5-methoxyphenyl)amino]-6-ethoxy-7-[3-(4-methylpiperazin-1-yl)propoxy]quinoline-3-carbonitrile] has a melting point of 137 to 138 °C and an IC50 [5] of 0.0012 µM.

For CCOc1cc2c(Nc3cc(OC)c(Cl)cc3Cl)c(C#N)cnc2cc1OCC1CCN(C)CC1 [Example 10, 4-[(2,4-Dichloro-5-methoxyphenyl)amino]-6-ethoxy-7-[(1-methylpiperidin-4-yl)methoxy]quinoline-3-carbonitrile], the melting point was 182 to 186 °C.

CCOc1cc2c(Nc3cc(OC)c(Cl)cc3Cl)c(C#N)cnc2cc1OCCCN1CCN(CC)CC1 [Example 11, 4-[(2,4-Dichloro-5-methoxyphenyl)amino]-6-ethoxy-7-[3-(4-ethylpiperazin-1-yl)propoxy]quinoline-3-carbonitrile] gave a melting point of 127 to 130 °C.

CCOc1cc2c(Nc3cc(OC)c(Cl)cc3Cl)c(C#N)cnc2cc1OCCCC1CCN(C)CC1 [Example 12, 4-[(2,4-Dichloro-5-methoxyphenyl)amino]-6-ethoxy-7-[3-(1-methylpiperidin-4-yl)propoxy]quinoline-3-carbonitrile] showed a melting point of 148 to 151 °C.

Molecule CCOc1cc2c(Nc3cc(OC)c(Cl)cc3Cl)c(C#N)cnc2cc1OCCN1CCN(C)CC1 [Example 13, 4-[(2,4-Dichloro-5-methoxyphenyl)amino]-6-ethoxy-7-[2-(4-methyl-1-piperazinyl)ethoxy]quinoline-3-carbonitrile] has a melting point of 141 to 143 °C.

CCOc1cc2c(Nc3cc(OC)c(Cl)cc3Cl)c(C#N)cnc2cc1OCCC1CCN(C)CC1 [Example 14, 4-[(2,4-Dichloro-5-methoxyphenyl)amino]-6-ethoxy-7-[2-(1-methylpiperidin-4-yl)ethoxy]quinoline-3-carbonitrile] showed a melting point of 174 to 176 °C.

In the case of CCCN1CCN(CCCOc2cc3ncc(C#N)c(Nc4cc(OC)c(Cl)cc4Cl)c3cc2OC)CC1 [Example 15, 4-[(2,4-Dichloro-5-methoxyphenyl)amino]-6-methoxy-7-[3-(4-propyl-1-piperazinyl)propoxy]-3-quinolinecarbonitrile], the IC50 [5, 8] is reported as 0.0011 µM.

Work on CCOc1cc(Nc2c(C#N)cnc3cc(OCC4CCN(C)CC4)c(OC)cc23)c(Cl)cc1Cl [Example 22, 4-[(2,4-dichloro-5-ethoxyphenyl)amino]-6-methoxy-7-[(1-methylpiperidin-4-yl)methoxy]quinoline-3-carbonitrile] yielded an IC50 [7] of 0.23 µM.
